Results as given in US11998540B2, “Compositions and methods for treating drug-tolerant glioblastoma” (THE GENERAL HOSPITAL CORPORATION, priority 2015, dated 2024).
“Also recorded” adds a separate entry of the source.

Experiments:
GSC8^Per = experiment: Cell growth assay (CELLTITER-GLO), dasatinib persisters GSC8^Per; type: cell-based, human; details: for growth, 12 day treatment: GSC8^Per vs GSC8 naïve; for sensitivity / effect on cell growth (dose-response): 4 day treatment, GSC8^Per (>8 weeks dasatinib)
Protocol: (§1) Patient-derived GSC culture lines were maintained in Neurobasal medium (Life Technologies) supplemented with N2/B27, penicillin/streptomycin (Life Technologies), GlutaMAX (Life Technologies), recombinant human EGF (20 ng/mL, R & D systems), and recombinant human FGF2 (20 ng/mL, R & D systems). For drug persister cultures, fresh compound and media were replenished every 4-6 days.
(§2) Freshly dissociated single cell suspensions were plated (96-well) in triplicate or quadruplicate at 1,000 to 10,000 cells/well for testing. For 4 day growth assays, […]-GLO® Luminescent Cell Viability Assay (Promega) was added to wells and end point luminescence was measured (BioTek Synergy HT Platereader). For 12 day assays, 1× compound in media was added at day 4 and all wells were replated with fresh media and compound at day 8 before viability was measured at day 12. For each inhibitor, n=3 replicates were used for each concentration and was repeated in two to four independent experiments.

GSC8 [1] = experiment: Cell growth assay ([…]-GLO), GSC8 naïve; type: cell-based, human; details: for sensitivity / effect on cell growth (dose-response): 4 day treatment, GSC8 naïve
Protocol: as §1, §2

H3K4me3 = H3K4me3 ChIP-seq in GSC8; type: cell-based, human; details: for H3K4me3 peak width / level: naïve GSCs, KDM5-C70 2.5 μM or GSKJ4 1.5 μM, 4 d
Protocol: Chromatin Immunoprecipitation (ChIP) was performed as previously described (Suvà et al., 2014). Briefly, formaldehyde-fixed cells were lysed and sheared (Branson […]) on wet ice. The sheared chromatin was cleared and incubated overnight at 4° C. with the following antibodies: H3K4me3 (Millipore, 07-473, Lot 2207275), H3K27me3 (Millipore, 07-449, lot 2382150), H3K27ac (Active Motif, 39133 lot 25812006), RBPJ (Abcam, ab25949, lot GR169397-1), and cleaved Notch1 (CST, 4147, lot #4). Antibody-chromatin complexes were immunoprecipitated with protein G magnetic Dynal beads (Life Technologies), washed, eluted, reverse crosslinked, and treated with RNAse A followed by proteinase K. ChIP DNA was purified using Ampure XP beads (Beckmann Coulter) and then used to prepare sequencing libraries for sequencing with the Next-Seq Illumina genome analyzer. Reads were aligned to hg19 using BWA (Li and Durbin, 2009) and identical ChIP-seq sequence reads were collapsed to avoid PCR duplicates. In order to avoid possible saturation biases, reads were downsampled to approximately similar numbers ( 20 million reads). Peaks were called using HOMER v4.6 (Heinz et al., 2010) using matched inputs with the following parameters: H3K4me3, -histone -tagThreshold 30; H3K27ac, -histone -tagThreshold 50; H3K27me3, -histone -size 3000 -[…] 0.1; Notch1 ICD, -factor; and RBPJ, -factor. […] Quantification of the H3K27me3 ChIP-seq signals, using fore- and background normalization, was essentially performed as outlined in (Zhu et al., 2013) with few modifications. To exclude genomic regions with potential copy number aberrations, read counts derived from whole cell extracts ChIP-seq within 5 kb genomic windows were quantified. Read counts were performed using interval overlap functions of the R package Genomic Ranges (Lawrence et al., 2013). To compute normalization constants, all genomic windows with read counts equal to 0 or greater than 3 standard deviations from the mean were excluded from the analysis. For a given H3K27me3 ChIP-seq data set, the background constant was estimated as the median of the read count distribution within 5 kb windows overlapping the 5% most highly expressed genes, as active genes are considered to be devoid of repressive chromatin modifications. The foreground signal was estimated as the median of the read count distribution within 5 kb windows centered around each called peak and subtracting the background signal. To quantify H3K27me3 signal within 5 kb regions of interest, the background signal was subtracted from the corresponding read count and the resulting value divided by the foreground signal. […] In order to quantify ChIP-seq intensities within genomic regions of different sizes (e.g. genes), the obtained normalization constants were scaled accordingly. […]

GSC8^12d = experiment: Cell growth assay (CELLTITER-GLO), GSC8 treated 12 days with dasatinib; type: cell-based, human; details: 4 day treatment
Protocol: as §1, §2

GSC8 [2] = experiment: Flow cytometry for Ki67 and EdU incorporation in GSC8; details: 1 μM
H3K27me3 = H3K27me3 ChIP-seq in GSC8; type: cell-based, human
Protocol: Chromatin Immunoprecipitation (ChIP) was performed as previously described (Suvà et al., 2014). Briefly, formaldehyde-fixed cells were lysed and sheared (Branson […]) on wet ice. The sheared chromatin was cleared and incubated overnight at 4° C. with the following antibodies: H3K4me3 (Millipore, 07-473, Lot 2207275), H3K27me3 (Millipore, 07-449, lot 2382150), H3K27ac (Active Motif, 39133 lot 25812006), RBPJ (Abcam, ab25949, lot GR169397-1), and cleaved Notch1 (CST, 4147, lot #4). Antibody-chromatin complexes were immunoprecipitated with protein G magnetic Dynal beads (Life Technologies), washed, eluted, reverse crosslinked, and treated with RNAse A followed by proteinase K. ChIP DNA was purified using Ampure XP beads (Beckmann Coulter) and then used to prepare sequencing libraries for sequencing with the Next-Seq Illumina genome analyzer. Reads were aligned to hg19 using BWA (Li and Durbin, 2009) and identical ChIP-seq sequence reads were collapsed to avoid PCR duplicates. In order to avoid possible saturation biases, reads were downsampled to approximately similar numbers ( 20 million reads). […] Quantification of the H3K27me3 ChIP-seq signals, using fore- and background normalization, was essentially performed as outlined in (Zhu et al., 2013) with few modifications. To exclude genomic regions with potential copy number aberrations, read counts derived from whole cell extracts ChIP-seq within 5 kb genomic windows were quantified. Read counts were performed using interval overlap functions of the R package Genomic Ranges (Lawrence et al., 2013). To compute normalization constants, all genomic windows with read counts equal to 0 or greater than 3 standard deviations from the mean were excluded from the analysis. For a given H3K27me3 ChIP-seq data set, the background constant was estimated as the median of the read count distribution within 5 kb windows overlapping the 5% most highly expressed genes, as active genes are considered to be devoid of repressive chromatin modifications. […]

GSC8 PD0325901^Per = experiment: Cell growth assay ([…]-GLO), MEK inhibitor persisters; type: cell-based, human; details: 4 day treatment; persisters from sustained MEK inhibition
Protocol: as §1, §2

KDMs = experiment: qRT-PCR of KDM gene expression in GSC8; type: cell-based, human; details: 48 hr drug treatment in GSC8
Protocol: Whole RNA was extracted from 1-3×10^6 cells using the QIAGEN RNeasy kit according to the manufacturer's protocol. For qRT-PCR, total RNA was reverse-transcribed into cDNA (High Capacity cDNA Reverse Transcriptase Kit, Applied Biosystems) and qRT-PCR amplification was performed using fast SYBR Green Master Mix (Life Technologies) with specific PCR primers for genes of interest and 18S as an endogenous control. Relative quantification for each target was performed using the comparative Ct method (Applied Biosystems). For RNA-seq library preparation, Poly(A)^+ RNA was enriched using magnetic oligo(dT)-beads (Life Technologies) and libraries were prepared as previously described (Gifford et al., 2013). Sequences for qRT-PCR primers used are listed at Table 3.

Structure (SMILES): C[C@H](NC(=O)Cc1cc(F)cc(F)c1)C(=O)N[C@H]1N=C(c2ccccc2)c2ccccc2N(C)C1=O [Compound E]
- growth, 12 day treatment (GSC8^Per): preferentially sensitive
- growth, 12 day treatment (GSC8^Per; listed as Notch inhibitor (γ-secretase)): significantly reduced
- growth, 12 day treatment (GSC8 [1]; 12 day treatment, naïve GSC8): little effect

Structure (SMILES): CC1(COc2ccc3c(c2)ncn3-c2ccc3cccc(N4CCC(N)CC4)c3n2)COC1 [crenolanib]
- sensitivity / effect on cell growth (dose-response) (GSC8^Per): relatively insensitive; also recorded: tolerated higher concentrations
- sensitivity / effect on cell growth (dose-response) (GSC8 [1]): preferentially sensitive

Structure (SMILES): CCOC(=O)CCNc1cc(N2CCc3ccccc3CC2)nc(-c2cccnc2)n1 [GSKJ5]
- sensitivity / effect on cell growth (dose-response) (GSC8^Per): no preferential sensitivity; also recorded: Negligible differential effects

Structure (SMILES): CCOC(=O)c1ccnc(CNCC(=O)N(CC)CCN(C)C)c1 [KDM5-C70]
- sensitivity / effect on cell growth (dose-response) (GSC8^Per): subtle effects on proliferation
- H3K4me3 peak width / level (H3K4me3): caused H3K4me3 peaks to expand; also recorded: H3K4me3 peak width increases
- rescue of H3K4me3 reduction associated with dasatinib treatment (H3K4me3; with 4 day dasatinib): partially rescued; also recorded: significantly attenuated H3K4me3 reduction
- sensitivity / effect on cell growth (dose-response) (GSC8 [1]): subtle effects on proliferation
- effect on dasatinib dose-response curve (GSC8 [1]; 4 day, GSC8 naïve simultaneously treated with KDM5-C70 2.5 μM vs vehicle): No significant effect
- sensitivity / effect on cell growth (dose-response) (GSC8^12d): subtle effects on proliferation

Structure (SMILES): Cc1nc(Nc2ncc(C(=O)Nc3c(C)cccc3Cl)s2)cc(N2CCN(CCO)CC2)n1 [dasatinib]
- sensitivity / effect on cell growth (dose-response) (GSC8^Per): relatively insensitive; also recorded: tolerated higher concentrations
- H3K4me3 at cell cycle-associated promoters (H3K4me3; short-term dasatinib treatment): reduced
- IC50 (GSC8 [1]; Homo sapiens, 96 h): ~0.01 µM
- cell cycle effect (Ki67 / EdU) (GSC8 [2]; 4 d): induced cell cycle arrest and G0 induction
- Ki67^+ cells (GSC8 [2]; after 4 days of dasatinib, 93% in naïve): 17%
- H3K27me3 peaks after drug treatment (H3K27me3; GSC8^12d, GSC8^Per, GSC8 PD0325901^Per): strongly reduced

Structure (SMILES): CCOC(=O)CCNc1cc(N2CCc3ccccc3CC2)nc(-c2ccccn2)n1 [GSKJ4]
- sensitivity / effect on cell growth (dose-response) (GSC8^Per): preferentially sensitive; also recorded: significantly compromised viability
- sensitivity / effect on cell growth (dose-response) (GSC8 PD0325901^Per): preferentially sensitive
- H3K4me3 peak width / level (H3K4me3): did not significantly increase H3K4me3
- sensitivity / effect on cell growth (dose-response) (GSC8 [1]): well tolerated
- sensitivity / effect on cell growth (dose-response) (GSC8^12d): preferentially sensitive; also recorded: significantly compromised viability
- rescue of H3K27me3 loss associated with dasatinib treatment (H3K27me3; GSC8^12d, GSKJ4 1.5 μM, 8 d, after 4 days of dasatinib): rescued the dramatic H3K27me3 loss
- effect on pre-existing H3K27me3 landscape (H3K27me3; naïve GSC8, 1.5 μM, 8 d): negligible effects

Structure (SMILES): O=C(NOC[C@H](O)CO)c1ccc(F)c(F)c1Nc1ccc(I)cc1F [PD0325901]
- sensitivity / effect on cell growth (dose-response) (GSC8 [1]): differentially sensitive
- KDM gene expression (KDMs): KDM induction; also recorded: up-regulation of numerous KDMs
